Data: patent US8952183B2, “Inhibitors of sialidase or sialidase-like enzymes” (priority 2009, dated 2015)

Assays:
[1] = target: influenza A neuraminidase (N1) (Influenza A virus, UniProt P03468); assay type: biochemical
[2] = system: bacterial or mammalian neuraminidases; details: Colman, 1999; cited from earlier work
influenza neuraminidases = details: Colman, 1999; cited from earlier work

influenza A neuraminidase (N1), sequence (P03468 whole entry): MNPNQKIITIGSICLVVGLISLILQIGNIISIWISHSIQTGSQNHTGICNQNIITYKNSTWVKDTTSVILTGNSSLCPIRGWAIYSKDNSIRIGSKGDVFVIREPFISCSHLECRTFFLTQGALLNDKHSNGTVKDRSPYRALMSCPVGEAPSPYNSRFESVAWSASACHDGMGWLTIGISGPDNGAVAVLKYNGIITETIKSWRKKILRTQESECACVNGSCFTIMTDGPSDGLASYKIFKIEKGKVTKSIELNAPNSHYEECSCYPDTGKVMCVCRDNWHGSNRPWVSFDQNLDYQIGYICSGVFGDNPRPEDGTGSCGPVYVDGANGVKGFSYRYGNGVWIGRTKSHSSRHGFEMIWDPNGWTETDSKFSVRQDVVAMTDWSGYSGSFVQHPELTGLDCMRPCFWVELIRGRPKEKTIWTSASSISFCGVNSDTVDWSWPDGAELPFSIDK

Row | SMILES | potency as inhibitor compared with ATA [1] | potency against bacterial or mammalian neuraminidases [2] | potency against influenza neuraminidases (influenza neuraminidases)
1 | CC(=N)N[C@H]1[C@H]([C@H](NC(C)=O)[C@@H](C)O)OC(C(=O)O)=C[C@@H]1O [Compound 8, 5-acetamidino-7-acetamido-3,5,7,9-tetradeoxy-D-glycero-D-galacto-non-2-enonate] | not as potent an inhibitor as Aurintricarboxylic acid (ATA) | – | –
2 | CC(=O)N[C@H]1[C@H]([C@H](O)[C@H](O)CO)OC(C(=O)O)=C[C@@H]1N=C(N)N [zanamivir] | – | much less potent | very potent
